These results are taken from PubChem BioAssay AID1259411 (Chemical Carcinogenesis Research Information System (CCRIS), 2018).

This series deals with rodent carcinogenicity bioassays, tumor incidence. Briefly: CCRIS carcinogenicity studies. Put shortly:
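NCI-built, expert-reviewed records of carcinogenicity and related test outcomes (mutagenicity, tumor promotion/inhibition) compiled from published and report sources, historical span 1985-2011, not updated.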

Active and inactive are the calls of the source. How the calls were made is not given here.

As to `CCCCN(CCCCO)N=O`, the carcinogen call (Species: MOUSE, Strain/Sex: B6C3F1/MALE, Route: ORAL, Dose: 0, 0.05% IN DRINKING WATER FOR 12 WK (STUDY DURATION: 20 WK), Tumor Site: Type of Lesion: BLADDER: SQUAMOUS CELL CARCINOMA) was “active; positive”; the carcinogen call (Species: MOUSE, Strain/Sex: B6D2F1/FEMALE, Route: ORAL, Dose: 0, 523 MG/L IN DRINKING WATER FOR 13 WK (STUDY DURATION: 28 WK), Tumor Site: Type of Lesion: URINARY BLADDER: TUMOR) was “active; positive”; the carcinogen call (Species: MOUSE, Strain/Sex: B6D2F1/MALE, Route: ORAL, Dose: 0, 0.05% IN DRINKING WATER FOR 26 WK (STUDY DURATION: 26 WK), Tumor Site: Type of Lesion: URINARY BLADDER: TRANSITIONAL CELL CARCINOMA) was “active; positive”; the carcinogen call (Species: MOUSE, Strain/Sex: B6D2F1/MALE, Route: ORAL, Dose: 0, 5 MG TWICE/WK BY GAVAGE FOR 10 WK (STUDY DURATION: 30 WK), Tumor Site: Type of Lesion: URINARY BLADDER: TRANSITIONAL CELL CARCINOMA) was “active; positive”; the carcinogen call (Species: MOUSE, Strain/Sex: B6D2F1/MALE, Route: ORAL, Dose: 0, 523 MG/L IN DRINKING WATER FOR 13 WK (STUDY DURATION: 28 WK), Tumor Site: Type of Lesion: URINARY BLADDER: TUMOR) was “active; positive”; the carcinogen call (Species: MOUSE, Strain/Sex: DS/SHI/MALE, Route: ORAL, Dose: 0, 0.05% IN DRINKING WATER FOR 12 WK (STUDY DURATION: 20 WK), Tumor Site: Type of Lesion: BLADDER: TRANSITIONAL CELL CARCINOMA) was “active; positive”. The carcinogen call was “active; positive” (Species: MOUSE, Strain/Sex: NON/SHI/MALE, Route: ORAL, Dose: 0, 0.05% IN DRINKING WATER FOR 4 WK (STUDY DURATION: 36 WK), Tumor Site: Type of Lesion: KIDNEY: TRANSITIONAL CELL CARCINOMA PAPILLOMA, BLADDER: TRANSITIONAL CELL CARCINOMA); “active; positive” (Species: MOUSE, Strain/Sex: NON/SHI/MALE, Route: ORAL, Dose: 0, 0.05% IN DRINKING WATER FOR 12 WK (STUDY DURATION: 20 WK), Tumor Site: Type of Lesion: KIDNEY: TRANSITIONAL CELL CARCINOMA, SQUAMOUS CELL CARCINOMA, BLADDER: TRANSITIONAL CELL CARCINOMA); “urinary bladder: carcinoma, 63.0% in nrf2-/- mice, 75.8% in p53+/- mice, 89.6% i” (Species: Mouse, Strain/Sex: Nrf2-/-, p53+/-, Nrf2-/-::p53+/-, and wild type, Route: Oral, Dose: 0.05% in drinking water for 8 wk, study duration 8 wk); “active; positive” (Species: RAT, Strain/Sex: ACI/MALE, Route: ORAL, Dose: 0, 0.05% IN DRINKING WATER FOR 4-24 WK, Tumor Site: Type of Lesion: URINARY BLADDER: PAPILLOMA, TRANSITIONAL CELL CARCINOMA, SQUAMOUS CELL CARCINOMA); “active; positive” (Species: RAT, Strain/Sex: F344/MALE, Route: ORAL, Dose: 0, 0.05% IN DRINKING WATER FOR 10 WK (STUDY DURATION: 20 WK), Tumor Site: Type of Lesion: URINARY BLADDER: TRANSITIONAL CELL CARCINOMA); “active; positive” (Species: RAT, Strain/Sex: F344/MALE, Route: ORAL, Dose: 0, 1, 5, 10, 50 PPM IN DRINKING WATER FOR 112 WK (STUDY DURATION: 112 WK), Dose: 0, 1, 5, 10, 50 PPM IN DRINKING WATER FOR 112 WK (STUDY DURATION: 112 WK), Tumor Site: Type of Lesion: BLADDER: CARCINOMA, PAPILLOMA).
Consider `c1ccc2nc3ccccc3cc2c1`, for which, under “Species: RAT, Strain/Sex: OSBORNE-MENDEL/FEMALE, Route: LUNG IMPLANT, Dose: 0, 0.2, 1.0, 5.0 MG IN BEESWAX/TRICAPRYLIN (STUDY DURATION: LIFETIME), Dose: 0, 0.2, 1.0, 5.0 MG IN BEESWAX/TRICAPRYLIN (STUDY DURATION: LIFETIME)”, the carcinogen call is “inactive; negative”.
Regarding `O[C@@H]1c2ccccc2-c2nc3ccccc3cc2[C@H]1O`, the carcinogen call (Species: MOUSE, Strain/Sex: SWISS/FEMALE, Route: INTRAPERITONEAL, Dose: 0, 1.05 UMOL GIVEN AS 150 NMOL IN 5 µL DMSO WITHIN 24 HR OF BIRTH, 300 NMOL IN 10 µL DMSO ON D 8 OF LIFE, AND 600 NMOL I) was “inactive; negative” and the carcinogen call (Species: MOUSE, Strain/Sex: SWISS/MALE, Route: INTRAPERITONEAL, Dose: 0, 1.05 UMOL GIVEN AS 150 NMOL IN 5 µL DMSO WITHIN 24 HR OF BIRTH, 300 NMOL IN 10 µL DMSO ON D 8 OF LIFE, AND 600 NMOL I) is “inactive; negative”.
For `C#CCO`, the carcinogen call (Species: Mouse, Strain/Sex: B6C3F1/Female (50/Group), Route: Inhalation, Dose: 0, 8, 16, 32 ppm for 6 hr plus 14 min per d, 5 d per wk for 105 wk (Study duration: 105 wk), Dose: 0, 8, 16, 32 ppm for 6 hr plus 14 min per d, 5 d per wk for 105 wk (Study duration: 105 wk), Tumor Site: Type of Lesion: Respiratory epithelium: Adenoma (0/50; 2/50; 4/50; 6/50)) is “active; positive. conclusions of authors: some evidence of carcinogenic activity”; the carcinogen call (Species: Mouse, Strain/Sex: B6C3F1/Male (50/Group), Route: Inhalation, Dose: 0, 8, 16, 32 ppm for 6 hr plus 14 min per d, 5 d per wk for 105 wk (Study duration: 105 wk), Dose: 0, 8, 16, 32 ppm for 6 hr plus 14 min per d, 5 d per wk for 105 wk (Study duration: 105 wk), Tumor Site: Type of Lesion: Respiratory epithelium: Adenoma (0/49; 1/50; 4/50; 7/50), Harderian gland (3/50; 10/50; 6/50; 11/50), Tumor Site: Type of Lesion: Respiratory epithelium: Adenoma (0/49; 1/50; 4/50; 7/50), Harderian gland (3/50; 10/50; 6/50; 11/50)) is “active; positive. conclusions of authors: some evidence of carcinogenic activity based o”; the carcinogen call (Species: Rat, Strain/Sex: F344/N / Female (50/Group), Route: Inhalation, Dose: 0, 16, 32, 64 ppm for 6 hr plus 14 min per d, 5 d per wk for 105 wk (Study duration: 105 wk), Dose: 0, 16, 32, 64 ppm for 6 hr plus 14 min per d, 5 d per wk for 105 wk (Study duration: 105 wk), Tumor Site: Type of Lesion: None) was “inactive; negative. conclusions of authors: no evidence of carcinogenic activity”; the carcinogen call (Species: Rat, Strain/Sex: F344/N / Male (50/Group), Route: Inhalation, Dose: 0, 16, 32, 64 ppm for 6 hr plus 14 min per d, 5 d per wk for 105 wk (Study duration: 105 wk), Dose: 0, 16, 32, 64 ppm for 6 hr plus 14 min per d, 5 d per wk for 105 wk (Study duration: 105 wk), Tumor Site: Type of Lesion: Respiratory epithelium: Adenoma (0/49; 0/49; 0/50; 3/49)) was “inactive; negative (although incidence at highest dose exceeded historical controls). con”.
With `O=C([O-])CNCCNCC(=O)[O-].O=C([O-])CNCCNCC(=O)[O-].O=C([O-])CNCCNCC(=O)[O-].[Fe+3].[Fe+3]`, the carcinogen call (Species: RAT, Strain/Sex: WISTAR/MALE, Route: INTRAPERITONEAL, Dose: 0, 10 MG/KG BW 2/WK FOR 3 MO (STUDY DURATION: 1 YR), Tumor Site: Type of Lesion: KIDNEY: TUMOR) was “active; positive”.
On to `COc1cc(-c2ccc(N/N=C3/C(=O)c4c(N)cc(S(=O)(=O)O)cc4C=C3S(=O)(=O)O)c(OC)c2)ccc1N/N=C1/C(=O)c2c(N)cc(S(=O)(=O)O)cc2C=C1S(=O)(=O)O`, for which the carcinogen call was “active; positive” (Species: RAT, Strain/Sex: F344/FEMALE, Route: ORAL, Dose: 0, 630, 1250, 2500 PPM IN DRINKING WATER FOR 22 MO (STUDY DURATION: 22 MO), Dose: 0, 630, 1250, 2500 PPM IN DRINKING WATER FOR 22 MO (STUDY DURATION: 22 MO), Tumor Site: Type of Lesion: CLITORAL GLAND: ADENOMA, CARCINOMA, LIVER: NEOPLASTIC NODULE OR HEPATOCELLULAR CARCINOMA, ORAL CAVITY (TONGUE OR PHARYNX, Tumor Site: Type of Lesion: CLITORAL GLAND: ADENOMA, CARCINOMA, LIVER: NEOPLASTIC NODULE OR HEPATOCELLULAR CARCINOMA, ORAL CAVITY (TONGUE OR PHARYNX) and “active; positive” (Species: RAT, Strain/Sex: F344/MALE, Route: ORAL, Dose: 0, 630, 1250, 2500 PPM IN DRINKING WATER FOR 22 MO (STUDY DURATION: 22 MO), Dose: 0, 630, 1250, 2500 PPM IN DRINKING WATER FOR 22 MO (STUDY DURATION: 22 MO), Tumor Site: Type of Lesion: LARGE INTESTINE: ADENOMATOUS POLYP OR ADENOCARCINOMA, LIVER: NEOPLASTIC NODULE OR HEPATOCELLULAR CARCINOMA, ORAL CAVITY, Tumor Site: Type of Lesion: LARGE INTESTINE: ADENOMATOUS POLYP OR ADENOCARCINOMA, LIVER: NEOPLASTIC NODULE OR HEPATOCELLULAR CARCINOMA, ORAL CAVITY).
